Measured values reported in patent US8980906B2, “Pyridonemorphinan analogs and biological activity on opioid receptors” (Purdue Pharma L.P., priority 2012, dated 2015).

Assays:
κ-opioid receptor [1] = target: T1, κ-opioid receptor (Homo sapiens (Human), UniProt P41145); assay: κ-opioid receptor radioligand dose-displacement binding assay ([3H]-U69,593); details: binding affinity, [3H]-U69,593 displacement
Method: κ-Opioid Receptor Binding Assay Procedures: Membranes from HEK-293 cells, CHO or U-2 OS cells expressing the recombinant human kappa opioid receptor (κ) were prepared by lysing cells in ice cold hypotonic buffer (2.5 mM MgCl2, 50 mM HEPES, pH 7.4) (10 mL/10 cm dish) followed by homogenization with a tissue grinder/Teflon pestle. Membranes were collected by centrifugation at 30,000×g for 15 min at 4° C. and pellets were resuspended in hypotonic buffer to a final concentration of 1-3 mg/mL. Protein concentrations were determined using the BioRad protein assay reagent with bovine serum albumen as standard, Aliquots of κ receptor membranes were stored at […].
Radioligand dose displacement assays used 0.4 nM [^3H]-U69,593 (GE Healthcare, Piscataway, N.J.; 40 Ci/mmole) with 15 μg membrane protein (recombinant κ opioid receptor expressed in HEK 293 cells; in-house prep) in a final volume of 200 μl binding buffer (5% DMSO, 50 mM Trizma base, pH 7.4). Non-specific binding was determined in the presence of 10 μM unlabeled naloxone or U69,593. All reactions were performed in 96-well polypropylene plates for 1 hour at a temperature of about 25° C. Binding reactions were terminated by rapid filtration onto 96-well Unifilter GF/C filter plates (Perkin Elmer, Shelton, Conn.) presoaked in 0.5% polyethylenimine (Sigma). Harvesting was performed using a 96-well tissue harvester (Perkin Elmer, Shelton, Conn.) followed by five filtration washes with 200 μl ice-cold binding buffer. Filter plates were subsequently dried at 50° C. for 1-2 hours. Fifty μl/well scintillation cocktail (Perkin Elmer, Shelton, Conn.) was added and plates were counted in a Packard Top-Count for 1 min/well.

μ-opioid receptor [2] = target: T2, μ-opioid receptor (Homo sapiens (Human), UniProt P35372); assay: μ-opioid receptor [35S]GTPγS functional assay, HEK-293 or CHO cells; format: biochemical
Method: (§1) μ-Opioid Receptor Functional Assay Procedures: [^35S]GTPγS functional assays were conducted using freshly thawed μ-receptor membranes prepared in-house from a cell line expressing recombinant μ opioid receptor in a HEK-293, CHO or U-2 OS cell background, or purchased from a commercial source (Perkin Elmer, Shelton, Conn.; or DiscovRx, Fremont, Calif.). Assay reactions were prepared by sequentially adding the following reagents to binding buffer (100 mM NaCl, 10 mM MgCl2, 20 mM HEPES, pH 7.4) on ice (final concentrations indicated): membrane protein (0.026 mg/mL), saponin ([…]), GDP ([…]) and [^35S]GTPγS (0.20 nM; Perkin Elmer, Shelton, Conn.). The prepared membrane solution (190 μl/well) was transferred to 96-shallow well polypropylene plates containing 10 μl of 20× concentrated stock solutions of the agonist [D-Ala^2, N-methyl-Phe^4 Gly-ol^5]-enkephalin (DAMGO) prepared in dimethyl sulfoxide (DMSO). Plates were incubated for 30 min at about 25° C. with shaking. Reactions were terminated by rapid filtration onto 96-well Unifilter GF/B filter plates (Perkin Elmer, Shelton, Conn.) using a 96-well tissue harvester (Perkin Elmer, Shelton, Conn.) followed by three filtration washes with 200 μl of ice-cold wash buffer (10 mM NaH2PO4, 10 mM Na2HPO4, pH 7.4). Filter plates were subsequently dried at 50° C. for 2-3 hours. BetaScint scintillation cocktail (Perkin Elmer, Shelton, Conn.) was added (50 μl/well) and plates were counted using a Packard Top-Count for 1 min/well. Data were analyzed using the sigmoidal dose-response curve fitting functions in GraphPad PRISM v. 3.0, or an in-house function for non-linear, sigmoidal dose-response curve-fitting.
(§2) μ-Opioid Receptor Functional Data: μ GTP EC50 is the concentration of a compound providing 50% of the maximal response for the compound at a μ-opioid receptor.
(§3) μ GTP Emax (%) is the maximal effect elicited by a compound relative to the effect elicited by DAMGO, a standard μ agonist. Generally, the μ GTP Emax (%) value measures the efficacy of a compound to treat or prevent pain or other Conditions.
(§4) In TABLE 2, activity response of certain Compounds of the Invention to the μ-, δ- and κ-opioid receptors was determined as described above for functional assays using HEK-293 or CHO cells.

κ-opioid receptor [3] = target: T1, κ-opioid receptor; assay: κ-opioid receptor [35S]GTPγS functional assay, HEK-293 or CHO cells; format: biochemical; details: for Emax: relative to U69,593, HEK-293 or CHO cells
Method: (§5) κ-Opioid Receptor Functional Assay Procedures: Functional [^35S]GTPγS binding assays were conducted as follows. κ opioid receptor membrane solution was prepared by sequentially adding final concentrations of 0.026 μg/μl κ membrane protein (in-house), 10 μg/mL saponin, 3 μM GDP and 0.20 nM [^35S]GTPγS to binding buffer (100 mM NaCl, 10 mM MgCl2, 20 mM HEPES, pH 7.4) on ice. The prepared membrane solution (190 μl/well) was transferred to 96-shallow well polypropylene plates containing 10 μl of 20× concentrated stock solutions of agonist prepared in DMSO. Plates were incubated for 30 min at a temperature of about 25° C. with shaking. Reactions were terminated by rapid filtration onto 96-well Unifilter GF/B filter plates (Perkin Elmer, Shelton, Conn.) using a 96-well tissue harvester (Packard) and followed by three filtration washes with 200 μl ice-cold binding buffer (10 mM NaH2PO4, 10 mM Na2HPO4, pH 7.4). Filter plates were subsequently dried at 50° C. for 2-3 hours. Fifty μl/well scintillation cocktail (Perkin Elmer, Shelton, Conn.) was added and plates were counted in a Packard Top-Count for 1 min/well.
(§6) κ-Opioid Receptor Functional Data: κ GTP EC50 is the concentration of a compound providing 50% of the maximal response for the compound at a κ receptor.
(§7) κ GTP Emax (%) is the maximal effect elicited by a compound relative to the effect elicited by U69,593.
as §4

μ-opioid receptor [4] = target: T2, μ-opioid receptor; assay: μ-opioid receptor [35S]GTPγS functional assay, U-2 OS cells; format: biochemical; details: for Emax: relative to DAMGO, U-2 OS cells
Method: as §1, §2, §3
(§8) The following TABLE 3 provides results on the activity response of certain Compounds of the Invention at the μ- and κ-opioid receptors determined as described above using U-2 OS cells.

κ-opioid receptor [5] = target: T1, κ-opioid receptor; assay: κ-opioid receptor [35S]GTPγS functional assay, U-2 OS cells; format: biochemical; details: for Emax: relative to U69,593, U-2 OS cells
Method: as §5, §6, §7, §8

COC(=O)c1cc2c([nH]c1=O)C[C@]13CCN(CC4CC4)[C@H](Cc4ccc(OC)cc41)[C@]3(O)C2 [Compound 2, (6R,6a,S,12aR)-methyl 15-(cyclopropylmethyl)-6a-hydroxy-2-dimethoxy-10-oxo-6,6a,7,10,11,12-hexahydro-5H-6,12a-(epiminoethano)naphtho[2,1-g]quinoline-9-carboxylate]
Ki (κ-opioid receptor [1]): 37.6 ± 4.75 nM | EC50 (μ-opioid receptor [2]): > 20 µM | EC50 (κ-opioid receptor [3]): 0.594 ± 0.087 µM | Emax (κ-opioid receptor [3]): 37.5 ± 2.25%

COc1ccc2c(c1)[C@]13CCN(CC4CC4)[C@H](C2)[C@]1(O)Cc1cc(C(=O)NCC(N)=O)c(=O)[nH]c1C3 [Compound 13, (6R,6aS,12aR)—N-(2-amino-2-oxoethyl)-15-(cyclopropylmethyl)-6a-hydroxy-2-methoxy-10-oxo-6,6a,7,10,11,12-hexahydro-5H-6,12a-(epiminoethano)naphtho[2,1-g]quinoline-9-carboxamide]
Ki (κ-opioid receptor [1]): 467 ± 173 nM

CC(C)C[C@H](NC(=O)c1cc2c([nH]c1=O)C[C@]13CCN(CC4CC4)[C@H](Cc4ccc(O)cc41)[C@]3(O)C2)C(N)=O [Compound 18, (6R,6aS,12aR)—N—((S)-1-amino-4-methyl-1-oxopentan-2-yl)-15-(cyclopropylmethyl)-2,6a-dihydroxy-10-oxo-6,6a,7,10,11,12-hexahydro-5H-6,12a-(epiminoethano)naphtho[2,1-g]quinoline-9-carboxamide]
Ki (κ-opioid receptor [1]): 1.09 ± 0.05 nM | EC50 (κ-opioid receptor [3]): > 20 µM

NC(=O)c1cc2c([nH]c1=O)C[C@]13CCN(CCc4ccccc4)[C@H](Cc4ccc(O)cc41)[C@]3(O)C2 [Compound 37, (6R,6aS,12aR)-2,6a-dihydroxy-10-oxo-15-phenethyl-6,6a,7,10,11,12-hexahydro-5H-6,12a-(epiminoethano)naphtho[2,1-g]quinoline-9-carboxamide]
EC50 (μ-opioid receptor [4]): 0.0727 ± 0.00387 µM | Emax (μ-opioid receptor [4]): 71.3 ± 0.33% | EC50 (μ-opioid receptor [2]): 0.268 ± 0.0531 µM | Emax (μ-opioid receptor [2]; relative to DAMGO, HEK-293 or CHO cells): 98 ± 4.62% | EC50 (κ-opioid receptor [3]): > 20 µM | Emax (κ-opioid receptor [3]): 2.5% | EC50 (κ-opioid receptor [5]): 0.374 ± 0.0935 µM | Emax (κ-opioid receptor [5]): 11.3 ± 1.45%

CN1CC[C@]23Cc4[nH]c(=O)c(C(=O)N5CCCC5)cc4C[C@@]2(O)[C@H]1Cc1ccc(O)cc13 [Compound 48, (6R,6aS,12aR)-2,6a-dihydroxy-15-methyl-9-(pyrrolidine-1-carbonyl)-6a,7,11,12-tetrahydro-5H-6,12a-(epiminoethano)naphtho[2,1-g]quinolin-10(6H)-one]
EC50 (μ-opioid receptor [4]): 0.0974 ± 0.00435 µM | Emax (μ-opioid receptor [4]): 82.7 ± 0.88% | EC50 (κ-opioid receptor [5]): 0.226 ± 0.00441 µM | Emax (κ-opioid receptor [5]): 90.3 ± 5.46%

CC(C)CCNC(=O)c1cc2c([nH]c1=O)C[C@]13CCN(C)[C@H](Cc4ccc(O)cc41)[C@]3(O)C2 [Compound 49, (6R,6aS,12aR)-2,6a-dihydroxy-N-isopentyl-15-methyl-10-oxo-6,6a,7,10,11,12-hexahydro-5H-6,12a-(epiminoethano)naphtho[2,1-g]quinoline-9-carboxamide]
EC50 (μ-opioid receptor [4]): 0.445 ± 0.0638 µM | Emax (μ-opioid receptor [4]): 80 ± 3.61% | EC50 (κ-opioid receptor [5]): 0.204 ± 0.0681 µM | Emax (κ-opioid receptor [5]): 63 ± 1.73%

C[C@H](NC(=O)c1cc2c([nH]c1=O)C[C@]13CCN(C)[C@H](Cc4ccc(O)cc41)[C@]3(O)C2)C(N)=O [Compound 50, (6R,6aS,12R)—N—((S)-1-amino-1-oxopropan-2-yl)-26a-dihydroxy-15-methyl-10-oxo-6,6a,7,10,11,12-hexahydro-5H-6,12a-(epiminoethano)naphtho[2.1-g]quinoline-9-carboxamide]
EC50 (μ-opioid receptor [4]): 0.204 ± 0.0113 µM | Emax (μ-opioid receptor [4]): 95 ± 1.15% | EC50 (κ-opioid receptor [5]): 1.07 ± 0.157 µM | Emax (κ-opioid receptor [5]): 54 ± 2.74%

CN1CC[C@]23Cc4[nH]c(=O)c(C(=O)N[C@@H](Cc5ccccc5)C(N)=O)cc4C[C@@]2(O)[C@H]1Cc1ccc(O)cc13 [Compound 51, (6R,6aS,12R)—N—((S)-1-amino-1-oxo-3-phenylpropan-2-yl)-2,6a-dihydroxy-15-methyl-10-oxo-6,6a,7,10,11,12-hexahydro-5H-6,12a-(epiminoethano)naphtho[2.1-g]quinoline-9-carboxamide]
EC50 (μ-opioid receptor [4]): 0.126 ± 0.0143 µM | Emax (μ-opioid receptor [4]): 97.7 ± 1.45% | EC50 (κ-opioid receptor [5]): 0.488 ± 0.0794 µM | Emax (κ-opioid receptor [5]): 39.3 ± 3.84%

CC(C)C[C@H](NC(=O)c1cc2c([nH]c1=O)C[C@]13CCN(C)[C@H](Cc4ccc(O)cc41)[C@]3(O)C2)C(N)=O [Compound 52, (6R,6aS,12R)—N—((S)-1-amino-4-methyl-1-oxopentan-2-yl)-2,6a-dihydroxy-15-methyl-10-oxo-6,6a,7,10,11,12-hexahydro-5H-6,12a-(epiminoethano)naphtho[2.1-g]quinoline-9-carboxamide]
EC50 (μ-opioid receptor [4]): 0.244 ± 0.0108 µM | Emax (μ-opioid receptor [4]): 97.7 ± 1.45% | EC50 (κ-opioid receptor [5]): 3.79 ± 1.57 µM | Emax (κ-opioid receptor [5]): 28.8 ± 2.17%

CN1CC[C@]23Cc4[nH]c(=O)c(C(=O)N5CCC[C@H]5C(N)=O)cc4C[C@@]2(O)[C@H]1Cc1ccc(O)cc13 [Compound 53, (S)-1-((6R,6aS,12R)-2,6a-dihydroxy-15-methyl-10-oxo-6,6a,7,10,11,12-hexahydro-5H-6,12a-(epiminoethano)naphtho[2.1-g]quinoline-9-carbonyl)pyrrolidine-2-carboxamide]
EC50 (μ-opioid receptor [4]): 0.123 ± 0.00615 µM | Emax (μ-opioid receptor [4]): 84 ± 2.08% | EC50 (κ-opioid receptor [5]): 0.602 ± 0.173 µM | Emax (κ-opioid receptor [5]): 68.3 ± 3.38%

O=C(c1cc2c([nH]c1=O)C[C@]13CCN(CC4CC4)[C@H](Cc4ccc(O)cc41)[C@@H]3C2)N1CCCC1 [Compound 55, (6R,6aS,12R)-15-(cyclopropylmethyl)-2-hydroxy-9-(pyrrolidine-1-carbonyl)-6,6a,7,12-tetrahydro-5H-6,12a-(epiminoethano)naphtho[2.1-g]quinolin-10(11H)-one]
EC50 (μ-opioid receptor [4]): 0.00079 ± 0.00031 µM | Emax (μ-opioid receptor [4]): 17.6 ± 0.68% | EC50 (κ-opioid receptor [5]): 0.00033 ± 3.7e-05 µM | Emax (κ-opioid receptor [5]): 86 ± 2.68%

O=C(c1ccccc1)c1cc2c([nH]c1=O)C[C@]13CCN(CC4CC4)[C@H](Cc4ccc(O)cc41)[C@]3(O)C2 [Compound 59, (6R,6aS,12R)-9-benzoyl-15-(cyclopropylmethyl)-2,6a-dihydroxy-6,6a,7,12-tetrahydro-5H-6,12a-(epiminoethano)naphtho[2.1-g]quinolin-10(11H)-one]
EC50 (μ-opioid receptor [4]): > 20 µM | Emax (μ-opioid receptor [4]): 2.5% | EC50 (κ-opioid receptor [5]): 17.9 ± 7.55 µM | Emax (κ-opioid receptor [5]): 16.8 ± 1.44%
